Data from patent US20230256059A1, “COMPOSITIONS FOR TREATING RESPIRATORY TRACT INFECTION AND USES THEREOF” (Lateral IP Pty Ltd, priority 2020, published 2023).
Read-outs that look alike come from different tables or passages of the source. Bridge positions count the residues as written; N and C are the ends. Peptide text beside a SMILES is read from it.

Columns and labels:
HKx31 (H3N2) IAV [1] = experiment: Titres of infectious virus in lung homogenates by standard plaque assay on MDCK cells; assay type: in vivo, C57BL/6 mice; details: day 4 post-infection; for reduction in levels of infectious virus in lung tissues: daily therapeutic 20 mg/kg intranasal from day 1
Description: (§1) For virus infection studies, groups of 8 male C57BL/6 mice were randomized. […] Bronchoalveolar lavage (BAL) fluid was immediately obtained following euthanisation by flushing the lungs three times with 1 mL of PBS. Lungs were then removed and frozen immediately in liquid nitrogen. Titres of infectious virus in lung homogenates were determined by standard plaque assay on MDCK cells.

HKx31 (H3N2) IAV [2] = experiment: Assessment of lung oedema and vascular leakage; design: species or system C57BL/6 mice; details: mouse, in vivo
[3] = system: IL-6, MCP-1/CCL2, IFNγ, IL-10, IL-12p70, TNFα, IFNα, IFNβ, IFN λ2/3; experiment: Quantification of cytokines in mouse BAL fluid and sera (CBA, ELISA); assay type: in vivo, C57BL/6 mice; details: day 4 post-infection
Description: as §1
To detect cytokines, BAL fluid was collected and stored at −80° C. Levels of IL-6, MCP-1/CCL2, IFNγ, IL-10, IL-12p70, and TNFα proteins were determined by cytokine bead array (CBA) using the mouse inflammation kit (Becton Dickinson). Levels of mouse IFNα were determined by sandwich ELISA using mouse monoclonal clone F18 (Thermo Scientific) and rabbit polyclonal antibodies (PBL) (Thomas et al., 2014). Levels of mouse IFNβ were determined by sandwich ELISA using mouse monoclonal clone 7F-D3 (Abcam) and rabbit polyclonal antibodies (PBL) (Thomas et al., 2014). Mouse IFN λ2/3 was quantified by ELISA (R&D Systems).

BAL cells = assay type: in vivo, C57BL/6 mice; details: day 4 post-infection
[4] = cited from earlier work
HKx31 (H3N2) IAV [5] = system: HKx31 (H3N2) IAV; design: species or system C57BL/6 mice; details: mouse, in vivo; for IAV-associated lethality: 5 mg/kg
HKx31 = HKx31 infection of human PBECs, infectious virus in cell supernatants; assay type: cell-based; details: 24 hours following HKx31 infection
[6] = system: respiratory tract infection by a virus; experiment: Case studies: oral AOD9604 in subjects with flu-like symptoms; assay type: in vivo, human
Excerpt: The subject is a person who presented with flu-like symptoms. The subject reported to have been free of flu-like symptoms over the past 8 years.
The subject developed a very sore throat. On awakening the next day, the sore throat was more severe and their nose was running (rhinorrhea) and becoming worse throughout the day. Other symptoms that developed during the day included: • a persistent deep phlegmy cough; • high temperature; • body sweats; • chills; • muscle soreness; and • fatigue.
Later that evening, the subject developed a loss of appetite, and an exacerbation of chills, body sweats, rhinorrhoea and persistent coughing. At around 8 pm that evening, the subject was administered ˜1 mg AOD9604 (SEQ ID NO:2), orally.
The subject is a person who in the afternoon presented with the flu, with symptoms including a persistent deep phlegmy cough, high temperature, body sweats, chills, muscle soreness and fatigue. The subject was administered ˜1 mg AOD9604 (SEQ ID NO:2), orally. The subject recalls sleeping well that evening.

[7] = 20 mg/kg intranasal every 48 h
SARS-CoV-2 = SARS-CoV-2 infection of Vero cells, cytopathic effect inhibition assay; assay type: cell-based
[8] = daily therapeutic 20 mg/kg intranasal from day 1
[9] = prophylactic 20 mg/kg intranasal, every 48 h

Compound: H-CRSVEGSCGF-OH (cysteine pairing not given here; listed as Homo sapiens) [LAT9991F]
- reduction in levels of infectious virus in lung tissues (HKx31 (H3N2) IAV [1]): 2.4 fold
- lung wet-to-dry ratios (HKx31 (H3N2) IAV [2]): no significant differences
- TNFα levels in BAL fluid [3, 8]: less profound reduction
- concentration of IFN λ2/3 in BAL fluid [3, 8]: not significantly different
- concentration of IFNα in BAL fluid [3, 8]: not significantly different
- concentration of IFNβ in BAL fluid [3, 8]: not significantly different
- concentration of IL-10 in BAL fluid [3, 8]: not significantly different
- concentration of IL-12p70 in BAL fluid [3, 8]: not significantly different
- reduction of IFNγ in BAL fluid [3, 8]: 2.3 fold
- reduction of IL-6 in the serum [3, 8]: approximately 1.6 fold
- inflammatory Ly6C+ macrophages in the airways (BAL cells; [8]): significantly fewer
- neutrophils in BAL (BAL cells; [8]): significantly fewer
- numbers of macrophages in BAL (BAL cells; [8]): reduced numbers of macrophages
- total BAL cellularity (BAL cells; [8]): significantly reduced
- total numbers of dendritic cells (BAL cells; [8]): comparable to PBS-treated infected controls
- stability as metabolite in human serum [4]: known stable metabolite of LAT8881 in human serum
- IAV-associated lethality (HKx31 (H3N2) IAV [5]): delayed IAV-associated lethality

Compound: CC[C@H](C)[C@H](NC(=O)[C@H](CCCNC(=N)N)NC(=O)[C@H](CC(C)C)NC(=O)[C@@H](N)Cc1ccc(O)cc1)C(=O)N[C@H](C(=O)N[C@@H](CCC(N)=O)C(=O)N[C@H]1CSSC[C@@H](C(=O)NCC(=O)N[C@@H](Cc2ccccc2)C(=O)O)NC(=O)[C@H](CO)NC(=O)CNC(=O)[C@H](CCC(=O)O)NC(=O)[C@H](C(C)C)NC(=O)[C@H](CO)NC(=O)[C@H](CCCNC(=N)N)NC1=O)C(C)C [LAT8881, H-YLRIVQCRSVEGSCGF-OH] (H-YLRIVQCRSVEGSCGF-OH; disulfide 7-14)
- levels of infectious virus in cell supernatants (HKx31): no significant impact
- reduction in levels of infectious virus in lung tissues (HKx31 (H3N2) IAV [1]): 1.5 fold
- reduction in infectious viral loads in the lung (HKx31 (H3N2) IAV [1]; prophylactic: 20 mg/kg intranasal 24 h prior to infection, then every 48 h): 1.6 fold
- remaining symptoms on waking about 7 hours later ([6]; Case study 1: ~1 mg orally): the only remaining symptoms were a runny nose and a slight cough
- symptoms of the flu by the morning ([6]; Case study 2: ~1 mg orally): all symptoms of the flu had disappeared except for a slight runny nose and a dry cough
- time until reported symptom-free ([6]; Case study 2: ~1 mg orally, after the morning following dosing): around 24 hours
- alleviation of symptoms of respiratory tract infection (conclusion of case studies) ([6]; ~1 mg orally, two case studies): capable of alleviating the symptoms of respiratory tract infection by a virus
- BAL fluid protein concentrations (vascular leakage) (HKx31 (H3N2) IAV [2]): significantly reduced
- lung wet-to-dry ratios (HKx31 (H3N2) IAV [2]): no significant differences
- weight loss or clinical signs of disease in uninfected mice [7]: did not result in weight loss or any clinical signs of disease
- IL-6 in the BAL fluid [3, 8]: significantly reduced
- TNFα levels in BAL fluid [3, 8]: less profound reduction
- concentration of IFN λ2/3 in BAL fluid [3, 8]: not significantly different
- concentration of IFNα in BAL fluid [3, 8]: not significantly different
- concentration of IFNβ in BAL fluid [3, 8]: not significantly different
- concentration of IL-10 in BAL fluid [3, 8]: not significantly different
- concentration of IL-12p70 in BAL fluid [3, 8]: not significantly different
- levels of CCL2 in BAL fluid [3, 8]: limited levels of CCL2
- reduction of IFNγ in BAL fluid [3, 8]: 2 fold
- reduction of IL-6 in the serum [3, 8]: approximately 1.6 fold
- concentration of CCL2 in BAL fluid [3, 9]: comparable with PBS-treated IAV infected controls
- concentration of IL-6 in BAL fluid [3, 9]: comparable with PBS-treated IAV infected controls
- concentration of IL-10 in BAL fluid [3, 9]: comparable with PBS-treated IAV infected controls
- concentration of IL-12p70 in BAL fluid [3, 9]: comparable with PBS-treated IAV infected controls
- concentration of TNFα in BAL fluid [3, 9]: comparable with PBS-treated IAV infected controls
- levels of IFN λ2/3 [3, 9]: no significant differences
- levels of IFNα [3, 9]: no significant differences
- levels of IFNβ [3, 9]: no significant differences
- reduction of IFNγ in BAL fluid [3, 9]: 2 fold
- reduction of IL-6 in the serum [3, 9]: 1.5 fold
- inflammatory Ly6C+ macrophages in the airways (BAL cells; [8]): significantly fewer
- neutrophils in BAL (BAL cells; [8]): significantly fewer
- total BAL cellularity (BAL cells; [8]): significantly reduced
- total numbers of dendritic cells (BAL cells; [8]): comparable to PBS-treated infected controls
- dendritic cells in the airways (BAL cells; [9]): no significant numerical difference
- inflammatory Ly6C+ macrophages in the airways (BAL cells; [9]): no significant numerical difference
- leukocyte cell death (Annexin V and PI staining of BAL cells) (BAL cells; [9]): no significant differences
- macrophages in BAL (BAL cells; [9]): significantly fewer
- neutrophils in BAL (BAL cells; [9]): significantly fewer
- total BAL cellularity (BAL cells; [9]): significantly reduced
- clinical signs of disease (weight loss, limited mobility, laboured breathing) (HKx31 (H3N2) IAV [5]): reduced clinical signs of disease including weight loss
- delay of IAV-associated lethality (HKx31 (H3N2) IAV [5]): 48 to 72 h
- onset of clinical signs of severe disease (weight loss, limited mobility, laboured breathing) (HKx31 (H3N2) IAV [5]): delayed the onset of clinical signs of severe disease
- survival of mice (from 0% in PBS controls) (HKx31 (H3N2) IAV [5]): approximately 30%
- IAV-associated lethality (HKx31 (H3N2) IAV [5]): delayed IAV-associated lethality
- SARS-CoV-2 infection of Vero cells (cytopathic effect inhibition) (SARS-CoV-2): did not alter SARS-CoV-2 infection of Vero cells
